Source: ChEMBL document CHEMBL1139782, “Dual acting antioxidant A1 adenosine receptor agonists” (Bioorg Med Chem Lett, 2007)
Active and inactive are the calls of the source. The calls are words filed in the database; no cut-off is given here.

Assays:
Adenosine receptor A2b = molecular target: T1, Adenosine receptor A2b (Homo sapiens, UniProt P29275); assay: Binding affinity to adenosine A2B receptor
T1 sequence (P29275 whole entry): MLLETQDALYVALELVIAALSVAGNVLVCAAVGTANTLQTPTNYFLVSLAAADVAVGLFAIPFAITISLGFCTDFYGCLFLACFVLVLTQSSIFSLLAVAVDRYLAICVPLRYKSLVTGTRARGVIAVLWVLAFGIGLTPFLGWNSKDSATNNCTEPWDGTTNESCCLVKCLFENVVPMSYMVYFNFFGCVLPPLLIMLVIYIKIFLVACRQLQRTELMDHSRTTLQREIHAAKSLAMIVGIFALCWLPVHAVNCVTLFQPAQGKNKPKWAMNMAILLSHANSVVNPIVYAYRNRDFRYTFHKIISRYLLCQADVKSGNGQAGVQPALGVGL

Adenosine receptor A1 = molecular target: T2, Adenosine receptor A1 (Homo sapiens, UniProt P30542); assay: Binding affinity to adenosine A1 receptor
T2 sequence (P30542 whole entry): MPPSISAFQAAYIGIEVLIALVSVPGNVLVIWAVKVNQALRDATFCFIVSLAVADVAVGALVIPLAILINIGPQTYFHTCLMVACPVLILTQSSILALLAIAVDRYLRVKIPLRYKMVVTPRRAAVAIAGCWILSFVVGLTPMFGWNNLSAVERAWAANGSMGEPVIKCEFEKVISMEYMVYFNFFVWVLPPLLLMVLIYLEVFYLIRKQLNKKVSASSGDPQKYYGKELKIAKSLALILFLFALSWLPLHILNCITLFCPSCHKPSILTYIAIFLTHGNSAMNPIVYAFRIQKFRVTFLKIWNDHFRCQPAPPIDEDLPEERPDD

Adenosine receptor A2a = Adenosine receptor A2a (Homo sapiens, UniProt P29274); assay: Binding affinity to adenosine A2A receptor
Adenosine receptor A3 = molecular target: T3, Adenosine receptor A3 (Homo sapiens, UniProt P0DMS8); assay: Binding affinity to adenosine A3 receptor
T3 sequence (P0DMS8 whole entry): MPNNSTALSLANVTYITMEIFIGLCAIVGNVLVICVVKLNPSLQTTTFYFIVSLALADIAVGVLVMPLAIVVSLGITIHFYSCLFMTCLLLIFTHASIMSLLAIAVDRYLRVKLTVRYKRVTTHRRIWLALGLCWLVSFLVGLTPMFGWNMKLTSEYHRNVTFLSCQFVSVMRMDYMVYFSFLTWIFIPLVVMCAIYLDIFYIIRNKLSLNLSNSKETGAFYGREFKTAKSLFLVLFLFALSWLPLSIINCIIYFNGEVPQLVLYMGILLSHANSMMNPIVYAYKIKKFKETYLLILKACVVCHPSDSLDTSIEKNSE

[1] = molecular target: T4, Adenosine receptor A1 (Rattus norvegicus) (UniProt P25099); assay: Agonist activity at adenosine A1 receptor in embryonic rat H9C2 cell model of ischemia assessed as reduction of cell death at 10 nM; assay type: functional, cell-based; set-up: scale not given: the % may be the effect or the level left
T4 sequence (whole entry): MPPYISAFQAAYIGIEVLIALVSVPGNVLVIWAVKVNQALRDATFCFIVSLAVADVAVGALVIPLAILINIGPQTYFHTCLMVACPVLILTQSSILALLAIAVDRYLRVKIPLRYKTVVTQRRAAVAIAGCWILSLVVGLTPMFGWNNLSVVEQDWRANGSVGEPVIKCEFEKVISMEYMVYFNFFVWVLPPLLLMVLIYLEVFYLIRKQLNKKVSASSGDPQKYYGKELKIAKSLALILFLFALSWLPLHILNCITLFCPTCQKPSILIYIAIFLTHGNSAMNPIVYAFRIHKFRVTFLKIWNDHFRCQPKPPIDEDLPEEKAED

[2] = molecular target: T4, Adenosine receptor A1 (Rattus norvegicus); assay: Reversal of agonistic activity at adenosine A1 receptor in embryonic rat H9C2 cell model of ischemia assessed as reduction of cardioprotective effect in presence of DPCPX A1 antagonist; assay type: functional, tissue-based; conditions: Heart
[3] = molecular target: Adenosine receptors; A1 & A3 (Homo sapiens) (UniProt P30542+P0DMS8); assay: Selectivity for adenosine A1 receptor over adenosine A3 receptor

Sequence of Adenosine receptor A2a (P29274 whole entry): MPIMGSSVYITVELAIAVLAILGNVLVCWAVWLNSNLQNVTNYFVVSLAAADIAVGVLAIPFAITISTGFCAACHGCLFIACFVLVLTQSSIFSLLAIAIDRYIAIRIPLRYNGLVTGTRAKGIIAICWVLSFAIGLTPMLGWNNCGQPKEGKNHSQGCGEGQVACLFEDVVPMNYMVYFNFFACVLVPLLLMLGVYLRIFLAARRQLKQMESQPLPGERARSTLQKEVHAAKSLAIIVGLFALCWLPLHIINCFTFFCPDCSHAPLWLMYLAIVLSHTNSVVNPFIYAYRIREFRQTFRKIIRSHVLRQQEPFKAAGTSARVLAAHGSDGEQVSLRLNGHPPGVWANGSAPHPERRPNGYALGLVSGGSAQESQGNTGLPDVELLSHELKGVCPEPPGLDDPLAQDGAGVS

| SMILES | Ki (Adenosine receptor A2b) | Ki (Adenosine receptor A1) | Ki (Adenosine receptor A2a) | Ki (Adenosine receptor A3) | Activity [1] | Activity [2] | Ratio Ki [3] |
| --- | --- | --- | --- | --- | --- | --- | --- |
| CC1(C)NC(C)(C)c2cc(Nc3ncnc4c3ncn4[C@@H]3O[C@H](CO)[C@@H](O)[C@H]3O)ccc21 | > 10 µM | 0.29 µM | > 10 µM | 0.28 µM | – | – | – |
| OC[C@H]1O[C@@H](n2cnc3c(NC4CCCC4)ncnc32)[C@H](O)[C@@H]1O | – | – | – | – | 86.2% | Active | – |
| CC(C)(C)c1cc(C(=O)NCCCCCCNc2ncnc3c2ncn3[C@@H]2O[C@H](CO)[C@@H](O)[C@H]2O)cc(C(C)(C)C)c1O | > 10 µM | 0.04 µM | > 10 µM | 0.014 µM | – | – | – |
| CC1(C)c2ccc(C(=O)NCCCCCCNc3ncnc4c3ncn4[C@@H]3O[C@H](CO)[C@@H](O)[C@H]3O)cc2C(C)(C)N1[O] | > 10 µM | 0.015 µM | > 10 µM | 0.089 µM | – | – | – |
| CC1(C)CC(Nc2ncnc3c2ncn3[C@@H]2O[C@H](CO)[C@@H](O)[C@H]2O)CC(C)(C)N1[O] | > 10 µM | 0.05 µM | > 10 µM | 8.56 µM | – | – | – |
| CC(C)(C)c1cc(C(=O)NCCc2ccc(Nc3ncnc4c3ncn4[C@@H]3O[C@H](CO)[C@@H](O)[C@H]3O)cc2)cc(C(C)(C)C)c1O | 8.58 µM | 0.032 µM | > 10 µM | 0.084 µM | 73.2% | Active | – |
| CC1(C)c2ccc(C(=O)NCCc3ccc(Nc4ncnc5c4ncn5[C@@H]4O[C@H](CO)[C@@H](O)[C@H]4O)cc3)cc2C(C)(C)N1[O] | 1.45 µM | 0.007 µM | > 10 µM | 0.23 µM | 54.7% | Active | 3 |
| CC1(C)c2ccc(Nc3ncnc4c3ncn4[C@@H]3O[C@H](CO)[C@@H](O)[C@H]3O)cc2C(C)(C)N1[O] | > 10 µM | 0.1 µM | > 10 µM | 0.79 µM | – | – | – |
| CC1(C)CC(CNc2ncnc3c2ncn3[C@@H]2O[C@H](CO)[C@@H](O)[C@H]2O)C(C)(C)N1[O] (stereo not given in full) | > 10 µM | 0.05 µM | > 10 µM | 21.2 µM | 84.8% | Active | – |
| CC1(C)CC(Nc2ncnc3c2ncn3[C@@H]2O[C@H](CO)[C@@H](O)[C@H]2O)CC(C)(C)N1 | > 10 µM | 1.58 µM | > 10 µM | 25 µM | – | – | – |
